Test system: 415267-285-R-J2-PDC complex spheroid viability
Assay: Anticancer human tumor 415267-285-R-J2-PDC patient-derived breast carcinoma cell line growth inhibition [POLQ]
Conditions: for IC50: curve of first compound; for viability, T/C: stronger effect = lower value
How it was run: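 Growth inhibition in 3D: complex spheroids (tumor PDC, HUVEC, MSC) treated with POLQ inhibitor combinations; where Cmax unknown, highest tested concentration 10 microM, except SN-38 at 1 microM.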

[1] = second compound 0.0316 µM, first compound 0.0316 µM
[2] = second compound 0.0316 µM, first compound 0.1 µM
[3] = second compound 0.0316 µM, first compound 0.316 µM
[4] = second compound 0.0316 µM, first compound 1 µM
[5] = second compound 0.0316 µM, first compound 3.16 µM
[6] = second compound 0.0316 µM, first compound 10 µM
[7] = second compound 0.1 µM, first compound 0.0316 µM
[8] = second compound 0.1 µM, first compound 0.1 µM
[9] = second compound 0.1 µM, first compound 0.316 µM
[10] = second compound 0.1 µM, first compound 1 µM
[11] = second compound 0.1 µM, first compound 3.16 µM
[12] = second compound 0.1 µM, first compound 10 µM
[13] = second compound 0.316 µM, first compound 0.0316 µM
[14] = second compound 0.316 µM, first compound 0.1 µM
[15] = second compound 0.316 µM, first compound 0.316 µM
[16] = second compound 0.316 µM, first compound 1 µM
[17] = second compound 0.316 µM, first compound 3.16 µM
[18] = second compound 0.316 µM, first compound 10 µM
[19] = second compound 1 µM, first compound 0.0316 µM
[20] = second compound 1 µM, first compound 0.1 µM
[21] = second compound 1 µM, first compound 0.316 µM
[22] = second compound 1 µM, first compound 1 µM
[23] = second compound 1 µM, first compound 3.16 µM
[24] = second compound 1 µM, first compound 10 µM
[25] = second compound 3.16 µM, first compound 0.0316 µM
[26] = second compound 3.16 µM, first compound 0.1 µM
[27] = second compound 3.16 µM, first compound 0.316 µM
[28] = second compound 3.16 µM, first compound 1 µM
[29] = second compound 3.16 µM, first compound 3.16 µM
[30] = second compound 3.16 µM, first compound 10 µM
[31] = second compound 10 µM, first compound 0.0316 µM
[32] = second compound 10 µM, first compound 0.1 µM
[33] = second compound 10 µM, first compound 0.316 µM
[34] = second compound 10 µM, first compound 1 µM
[35] = second compound 10 µM, first compound 3.16 µM
[36] = second compound 10 µM, first compound 10 µM
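Also: spheroids exposed to compounds for one week before readout.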
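For viability, T/C in this document: luminescence used as stand-in measure of viable cells; 100% = DMSO vehicle control viability.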

## C=CC(=O)N1CCN(c2nc(=O)n(-c3c(C)ccnc3C(C)C)c3nc(-c4c(O)cccc4F)c(F)cc23)C(C)C1 (centres undefined) + Cc1cccc(N(C)C(=O)C2C(O)CCN2c2nc(C)cc(C(F)(F)F)c2C#N)c1
Second compound 0.0316 µM
  IC50: > 10 µM
Second compound 0.1 µM
  IC50: > 10 µM
Second compound 0.316 µM
  IC50: > 10 µM
Second compound 1 µM
  IC50: > 10 µM
Second compound 3.16 µM
  IC50: > 10 µM
Second compound 10 µM
  IC50: > 10 µM
[1]
  viability, T/C: 101%
[2]
  viability, T/C: 104%
[3]
  viability, T/C: 102%
[4]
  viability, T/C: 104%
[5]
  viability, T/C: 111%
[6]
  viability, T/C: 93.5%
[7]
  viability, T/C: 98.4%
[8]
  viability, T/C: 95.6%
[9]
  viability, T/C: 98.7%
[10]
  viability, T/C: 103%
[11]
  viability, T/C: 100%
[12]
  viability, T/C: 97.7%
[13]
  viability, T/C: 103%
[14]
  viability, T/C: 106%
[15]
  viability, T/C: 105%
[16]
  viability, T/C: 105%
[17]
  viability, T/C: 99.5%
[18]
  viability, T/C: 102%
[19]
  viability, T/C: 95.8%
[20]
  viability, T/C: 105%
[21]
  viability, T/C: 106%
[22]
  viability, T/C: 99.8%
[23]
  viability, T/C: 112%
[24]
  viability, T/C: 91.4%
[25]
  viability, T/C: 99.2%
[26]
  viability, T/C: 104%
[27]
  viability, T/C: 107%
[28]
  viability, T/C: 102%
[29]
  viability, T/C: 99.1%
[30]
  viability, T/C: 96.7%
[31]
  viability, T/C: 100%
[32]
  viability, T/C: 90.8%
[33]
  viability, T/C: 101%
[34]
  viability, T/C: 102%
[35]
  viability, T/C: 94.4%
[36]
  viability, T/C: 88.8%

## CC(C)n1c(=O)n(C)c2cnc3cc(F)c(-c4ccc(OCCCN5CCCCC5)nc4)cc3c21 + Cc1cccc(N(C)C(=O)C2C(O)CCN2c2nc(C)cc(C(F)(F)F)c2C#N)c1
Second compound 0.0316 µM
  IC50: > 10 µM
Second compound 0.1 µM
  IC50: > 10 µM
Second compound 0.316 µM
  IC50: > 10 µM
Second compound 1 µM
  IC50: > 10 µM
Second compound 3.16 µM
  IC50: > 10 µM
Second compound 10 µM
  IC50: > 10 µM
[1]
  viability, T/C: 88.5%
[2]
  viability, T/C: 107%
[3]
  viability, T/C: 100%
[4]
  viability, T/C: 110%
[5]
  viability, T/C: 111%
[6]
  viability, T/C: 93.8%
[7]
  viability, T/C: 89.7%
[8]
  viability, T/C: 88.6%
[9]
  viability, T/C: 105%
[10]
  viability, T/C: 101%
[11]
  viability, T/C: 101%
[12]
  viability, T/C: 80.6%
[13]
  viability, T/C: 103%
[14]
  viability, T/C: 98.5%
[15]
  viability, T/C: 105%
[16]
  viability, T/C: 105%
[17]
  viability, T/C: 111%
[18]
  viability, T/C: 92.5%
[19]
  viability, T/C: 102%
[20]
  viability, T/C: 94.8%
[21]
  viability, T/C: 108%
[22]
  viability, T/C: 109%
[23]
  viability, T/C: 104%
[24]
  viability, T/C: 87.5%
[25]
  viability, T/C: 94.4%
[26]
  viability, T/C: 111%
[27]
  viability, T/C: 96.7%
[28]
  viability, T/C: 105%
[29]
  viability, T/C: 87.5%
[30]
  viability, T/C: 81.9%
[31]
  viability, T/C: 99.1%
[32]
  viability, T/C: 86.1%
[33]
  viability, T/C: 90.4%
[34]
  viability, T/C: 96.8%
[35]
  viability, T/C: 87.6%
[36]
  viability, T/C: 81%

Source: PubChem BioAssay AID1963847 (Molecular Pharmacology Branch, DTP, NCI, 2024)
